Consider one compound from patent US9896482B2, “Beta hairpin peptides having antiviral properties against Dengue virus” (CENTRO DE INGENIERÍA GENÉTICA Y BIOTECNOLOGÍA, priority 2014, dated 2018).

SMILES strings stand for the structures. Like-named read-outs stand apart in the source and are kept apart here. Marks after values point to notes of the source that are not given here. Where a SMILES comes first, the peptide text is derived from it. Bridges are numbered along the chain shown (N, C = ends). [ ]: non-standard residue; d: D form.

Series [1] in a line: Toxicity in Vero cells (MTT assay and manual cell counting). The format is cell-based. To be noted: ‡ non toxic at 1000 μM, read-out: Ctox50. The procedure:
The toxicity of the beta hairpin peptides was assessed with the MTT (3-(4,5-dimethylthiazol-2-yl)-2,5-diphenyltetrazolium bromide, Invitrogen, USA) assay (Mosmann, T. (1983). J. Immunol. Methods 65, 55-63.), and by manual cell counting using a Neubauer chamber. Ninety-six well plates (Costar, USA) were seeded with 200 μL/well of a suspension containing Vero cells at 1×10^5 cells/mL and incubated until the monolayers reached approximately 90% confluence, typically for 18-24 h. After washing the cells twice with DMEM (Dulbecco's Modified Eagle Medium) medium, 50 μL/well were added of the peptide or additive dilutions to be evaluated (Triton ^X-100™ dissolved in PBS was used as positive toxicity control) and the plates were incubated at 37° C. under a 5% CO2 atmosphere for 2 or 24 h. Two different procedures were then employed to measure toxicity: • a) A 2 mg/mL solution of MTT in PBS was added (50 μL/well) and the plates were incubated for further 4 h at 37° C., 5% CO2. The medium was then removed, and 100 μL/well of DMSO were then added to solubilize formazan precipitates. Finally, the optical density (OD) of the supernatants at a wavelength of 540 nm was measured using a plate reader (Sensident Scan™, Merck, Germany). • b) The plates were washed with 200 μL/well of DMEM medium and then a trypsin solution (Sigma, USA) was added at 50 μL/well. After inactivating the trypsin by adding 150 μL/well of DMEM supplemented with 10% FBS, the cells were counted using the Trypan Blue (Gibco, USA) vital stain. The data were processed using the statistical software package Prism v5.3 (GraphPad, USA), using non-linear regression to fit them to a log10 (concentration) vs response curve.
Background: Formazan colour is commonly taken as a measure of viable cells.

For series [2], the system named is DENV 4 (NIBSC code TVP360). Kind of series: Plaque reduction assay in Vero cells, DENV4. The format is cell-based, Dengue virus. To be noted: m.o.i. 0.001, read-out: Antiviral activity IC50 vs DENV4. On the procedure: (§1) The cells were grown in 24 well plates until the monolayer reached approximately 90% confluence, after which they were washed twice with MEM medium without Fetal Bovine Serum (FBS). Then, peptide dilutions were added and the cell-peptide mixtures were incubated typically for 1 hour at 37° C., followed by the addition of a DENV serotype 2 preparation (NIBSC code S16803) at a multiplicity of infection (m.o.i.) of 0.001. The cells were then incubated for 1 hour at 37° C., and once the period of incubation with the viral inoculum concluded, were washed again to remove unbound virions and incubated for 5 days at 37° C. in high density medium (MEM supplemented with non-essential amino acids, 1% FBS, 1% carboxymethylcellulose) in order to let viral plaques form. Afterwards, the cells were stained with 0.1% Naphtol Blue Black in 0.15 M sodium acetate. Two replicates per experimental point were used in each assay, and three independent determinations were performed for each sample.
Next, it was decided to compare the antiviral activity of peptides PHB4 and HDIII3CL against all four DENV serotypes, with the objective of comparing their respective IC50 values. […]

Another series has as its system DENV3. Briefly: In vivo protection assay, intracranial challenge, DENV3. To be noted: 30 μg peptide, morbidity evaluated instead of lethality. Further details: species or system Balb/c mice. On the procedure: (§2) An experiment was set up to evaluate the in vivo antiviral activity of peptide PHB4 and compare it to that of peptide HDIII3CL. For this purpose, groups of 12 adult Balb/c mice (20 g average body weight) were anesthetized by ether inhalation and inoculated intracranially with 20 μL of viral preparations containing 10 times the median lethal dose of this model and the peptide to be evaluated. The animals recovered quickly and already appeared alert five minutes after the treatment, and were monitored afterwards for 21 days. The data were evaluated using the Kaplan-Meier logarithmic rank test.

The next series has as its system DENV2 strain S16803. On the procedure: The antiviral activity of peptide PHB4 was evaluated after treatments facilitating its aggregation or in the presence of different agents that modulate aggregation, with the purpose of examining their effect on the inhibitory activity of this peptide for the infection of Huh7.5 cells with DENV2 strain S16803. Huh7.5, a human hepatoma-derived cell line, was selected not only because it is permissive for DENV2, but because of its relevance as an experimental system from the viewpoint of DENV pathogenesis (Lin Y L, et al. (2000) J Med Virol.; 60(4):425-31).
Antiviral activity was evaluated in virus yield assays, in which 80-90% confluent Huh7.5 monolayers were washed twice with non-supplemented DMEM and then infected at a m.o.i of 0.01 for 2 h at 37° C. and 5% CO2 in the presence of the different peptide preparations, after which the viral inoculum was removed by washing with non-supplemented DMEM, and the cells were grown in DMEM supplemented with 2% FBS. Cell supernatants were collected at 24 h p.i., and virus yields were determined by titrating the supernatant in a plaque formation assay (Morens D. M., et al. (1985). N. J. Clin. Microbiology; 22: 250-254).
Therefore, a first series of assays was set up in which, starting from a 20 μM solution of the peptide in water, dilutions were prepared in MEM spanning the 10-0.01 μM concentration range, which were then incubated in parallel at 10° C. and 37° C. for 2 hours and then used in a viral inhibition assay. Non-incubated peptide dilutions (that is, prepared right before the viral inhibition assay) were used as controls.
A second experiment was designed to determine the influence of aggregation time on the antiviral potency of peptide PHB4 (FIG. 18). […] This incubation with HSA was performed in parallel at either 10° C. or 37° C.

The test system of another series is DENV1. Briefly: In vivo protection assay, intracranial challenge, DENV1. Details: species or system Balb/c mice. To be noted: 30 μg peptide inoculated intracranially with 10 median lethal doses, 21 days. The procedure:
as §2

In series [3] the test system is DENV serotype 2 (NIBSC code S16803). Briefly: Plaque reduction assay in Vero cells, DENV2. The format is cell-based, Dengue virus. On the procedure:
as §1
Next, it was decided to compare the antiviral activity of peptides PHB4 and HDIII3CL against all four DENV serotypes, with the objective of comparing their respective IC50 values. This comparison was performed with plaque reduction assays on Vero cells, adding the viral inoculum for each serotype (DENV1, NIBSC code West Pac 74, DENV2, NIBSC, code S16803; DENV3, NIBSC, code CH53489; DENV 4, NIBSC code TVP360) at a m.o.i. of 0.001.

By IC50 is commonly meant the concentration that inhibits the measured activity by half. For the compound `CC[C@H](C)[C@@H]1NC(=O)[C@H](Cc2ccccc2)NC(=O)[C@H](Cc2c[nH]c3ccccc23)NC(=O)[C@H](CC(N)=O)NC(=O)[C@H](C(C)C)NC(=O)[C@H](CCCCN)NC(=O)[C@H](Cc2c[nH]c3ccccc23)NC(=O)[C@H](CCCCN)NC(=O)[C@H]2CCCN2C(=O)[C@H](CCCNC(=N)N)NC(=O)[C@H]([C@@H](C)O)NC(=O)[C@H](Cc2c[nH]c3ccccc23)NC(=O)[C@H](Cc2ccc(O)cc2)NC(=O)[C@H](C(C)C)NC(=O)[C@H](CCC(=O)O)NC(=O)[C@H]([C@@H](C)CC)NC(=O)[C@@H](N)CSSC[C@@H](C(=O)N[C@@H](CCCCN)C(=O)N[C@@H](CCCCN)C(=O)N[C@@H](CCCCN)C(N)=O)NC1=O` [PHB4] (H-CIEVYWTR[dP]KWKVNWFICKKK-NH2; disulfide 1-18; N-terminus assumed), the CC50 in series [1] was found to be 13000 nM. Also, the IC50 in series [2] came out at 10 nM; with DENV2 strain S16803 (read-out: IC50, 2 hrs-10° C., Huh7.5 cells, peptide pre-incubated in MEM 2 h at 10° C.), 37 nM; in the series on DENV2 strain S16803 (read-out: IC50, 2 hrs-37° C., Huh7.5 cells, peptide pre-incubated in MEM 2 h at 37° C.), 890 nM; in the series with DENV2 strain S16803 (read-out: IC50, no incubation, Huh7.5 cells, peptide dissolved in MEM, non-incubated), 160 nM; in series [3] (DENV2, plaque reduction, NA = no detectable activity at concentrations lower than or equal to 100 μM, read-out: IC50, antiviral activity in Vero cells (50% inhibitory activity)), 3 nM; in series [3] (Vero cells, m.o.i. 0.001, read-out: Antiviral activity IC50 vs DENV2), 3 nM. For the same compound, the “Protection (%) DENV3” value in the series with DENV3 is given as 100*** %. In addition, the “Variation in potency with incubation temperature” value with DENV2 strain S16803 (10° C. vs 37° C. pre-incubation) is on record as 24 fold. Moreover, the IC100 in the series on DENV2 strain S16803 (Huh7.5 cells, non-incubated peptide in MEM) stood at 10 µM. Also, the “Protection (%) DENV1” value with DENV1 is 100*** %. Besides, in series [3] (depending on serotype, DENV1-4, Vero cells), the “Fold more potent than peptide HDIII3CL” value is reported as 4000- to 7500 fold.
